Where two headings read alike, the source gives them in different places.
Target: T1, RoDH4 (also named RDH16) (Homo sapiens, UniProt O75452)
T1 sequence (O75452 1-317): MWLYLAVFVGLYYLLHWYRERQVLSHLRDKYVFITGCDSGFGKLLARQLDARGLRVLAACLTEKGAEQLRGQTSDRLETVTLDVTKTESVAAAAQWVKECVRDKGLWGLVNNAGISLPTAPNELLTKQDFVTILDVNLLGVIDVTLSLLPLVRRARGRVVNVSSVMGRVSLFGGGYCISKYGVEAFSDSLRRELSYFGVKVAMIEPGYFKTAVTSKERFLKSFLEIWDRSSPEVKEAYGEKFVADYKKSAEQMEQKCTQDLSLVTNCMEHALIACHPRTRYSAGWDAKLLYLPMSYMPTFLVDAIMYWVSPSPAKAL
Experiment: single-concentration ([…]) inhibition of allopregnanolone oxidation by membranes of RoDH4-transfected HEK293 cells
Format: cell-based

Row | Compound | remaining activity at 240 µM (HEK293, read-out: % control at 240 μM) | remaining activity at 240 µM (HEK293; read-out: % control at 240 μM)
1 | CN(C)CCCN1c2ccccc2CCc2ccccc21 [imipramine] | 25.45 ± 0.04% | –
2 | NCCC(Oc1ccc(C(F)(F)F)cc1)c1ccccc1 (centres unmarked) [norfluoxetine] | – | 37.8 ± 0.95%

Reference: publication PMC4290723 (British Journal of Pharmacology, 2014)
